Consider 80 compounds from publication PMC12040169 (PLOS Biology, 2025).

The nature of this data set: in vitro. Particulars: human, hela cells, % viability.

For the compound `COC1C(O)C(CO)OC1n1ccc(NC(=O)c2ccccc2)nc1=O` (centres unmarked) [CBK201212], the viability at 28.5 h, 10 µM came to 94.8%.

For the compound `FC(F)(F)Oc1ccc(-c2c[nH]c([C@@H]3COCCN3C3CCNCC3)n2)cc1` [CBK289312], the viability at 28.5 h, 10 µM came out at 97.8%.

For the compound `Cc1ccccc1Nc1nc(N)nc(CN2CCCC2C(=O)N(C)C)n1` (centres unmarked) [CBK305638], the viability at 28.5 h, 10 µM turned out to be 81%.

On to `Clc1cc2nc(SCCc3cnccn3)c(N3CCCC3)nc2cc1Cl` [CBK103700], for which the viability at 28.5 h, 10 µM amounted to 93.1%.

For the compound `O=C(NCc1c(Cl)cccc1Cl)N1CCCCC1CO` (centres unmarked) [CBK156184], the viability at 28.5 h, 10 µM amounted to 99.5%.

As for `c1ccc(CCN2CCN(CC3COc4ccccc4O3)CC2)cc1` (centres unmarked) [CBK138342], the viability at 28.5 h, 10 µM was found to be 86%.

As for `CC(=O)Nc1ccc(C(=O)NCc2ccc(S(N)(=O)=O)cc2)cc1` [CBK263642], the viability at 28.5 h, 10 µM worked out at 105%.

As for `Cc1cccc(OCC(=O)Nc2sc3c(c2C(N)=O)CCC3)c1C` [CBK269729], the viability at 28.5 h, 10 µM stood at 94.8%.

In the case of `CC(=O)N1CCN(c2nc3ccccc3s2)CC1` [CBK287362], the viability at 28.5 h, 10 µM was 95%.

Turning to `Cc1ccccc1OCC1CCCN(C(=O)C2CC(=O)OC2(C)C)C1` (centres unmarked) [CBK282062], the viability at 28.5 h, 10 µM is 92.7%.

As to `Cc1cccc(Nc2nc(N/N=C/c3c[nH]nc3-c3ccccc3)nc(N3CCC(C)CC3)n2)c1C` [CBK262498], the viability at 28.5 h, 10 µM amounted to 89.3%.

Regarding `C(=C\c1ccccc1)/CN1CCN(CCc2ccccc2)CC1` [CBK261893], the viability at 28.5 h, 10 µM was found to be 93.4%.

Consider `OC1CCN(Cc2c([C@H]3CCCO3)[nH]c3ncccc23)CC1` [CBK286301], for which the viability at 28.5 h, 10 µM turned out to be 110%.

Turning to `O=C1NC2CS(=O)(=O)CC2N1Cc1ccccc1` (centres unmarked) [CBK009306], the viability at 28.5 h, 10 µM amounted to 85.7%.

On to `Cc1cc(S(=O)(=O)NCCC#N)c(C)cc1Cl` [CBK043680], for which the viability at 28.5 h, 10 µM is 113%.

Take `COc1cccc(CN2CCC3(CC2)NC(=O)Cc2ccc(C)cc23)c1` [CBK040219]: the viability at 28.5 h, 10 µM came to 88.5%.

Regarding `c1cnn(CCCNc2nc3nonc3nc2N2CCCCCC2)c1` [CBK307318], the viability at 28.5 h, 10 µM came out at 110%.

Regarding `CN(C)C(=O)[C@@]1(O)CCC2(c3ccc(Cl)cc3)CCCN(C)C2C1` (some centres unmarked) [CBK005234], the viability at 28.5 h, 10 µM amounted to 92.8%.

`OCCOc1ccnc2ccccc12` [CBK113395]: the viability at 28.5 h, 10 µM was 95.8%.

In the case of `COc1ccc(C(=O)[C@H]2CCCN(C(=O)C3CC3)C2)cc1` [CBK284329], the viability at 28.5 h, 10 µM stood at 91.4%.

As for `c1cnc(N2CCCC2)c(Sc2nc[nH]n2)n1` [CBK093737], the viability at 28.5 h, 10 µM worked out at 102%.

For the compound `Nc1ncc(-c2cccnc2)nc1NC1CCC(O)CC1` (centres unmarked) [CBK063840], the viability at 28.5 h, 10 µM came to 92.7%.

For `CC(C)[C@@H](N)C(=O)N1CC[C@@H]2NC(=O)[C@@H](Cc3ccccc3)NC(=O)C3(C/C=C/C[C@H]2C1)CCOCC3` [CBK292201], the viability at 28.5 h, 10 µM was 112%.

`CN(C)CCN(C)c1cncc(-c2cccc(N)c2)n1` [CBK065270]: the viability at 28.5 h, 10 µM was 87.3%.

In the case of `O=C(O)C1CC=CCC1C(=O)NCc1ccncc1` (centres unmarked) [CBK265481], the viability at 28.5 h, 10 µM stood at 89.2%.

`Cn1c(=O)c2c(nc(CN3CCN(C(=O)c4ccco4)CC3)n2CCc2ccccc2)n(C)c1=O` [CBK269278]: the viability at 28.5 h, 10 µM worked out at 80.6%.

Turning to `COc1cc(CCc2cc(O)n3nc(C)c(-c4ccc(Cl)cc4)c3n2)on1` [CBK285681], the viability at 28.5 h, 10 µM worked out at 91.3%.

For `COCC(=O)N1CCC2(C/C=C/C[C@H]3COCC[C@@H]3NC(=O)CNC2=O)CC1` [CBK292158], the viability at 28.5 h, 10 µM is 95.2%.

On to `COc1ccc(CN2CCN(C(=O)c3ccc(C#N)cc3)CC2)cc1` [CBK305698], for which the viability at 28.5 h, 10 µM was 99.6%.

With `CCc1c(C)nc2ccccc2c1SCCOC(=O)Nc1cccc([N+](=O)[O-])c1` [CBK155545T], the viability at 28.5 h, 10 µM stood at 106%.

With `Cc1cc2c(cc1C)N(C(=O)CSc1ncn[nH]1)C(C)(C)c1ssc(=S)c1-2` [CBK263786], the viability at 28.5 h, 10 µM was 96.3%.

On to `Cc1cn(C2CC(O)C(CNC(=O)C(F)(F)F)O2)c(=O)[nH]c1=O` (centres unmarked) [CBK201200], for which the viability at 28.5 h, 10 µM was 98%.

In the case of `O=C(CSc1nnc(SCc2cccc3ccccc23)s1)Nc1ccccc1C(F)(F)F` [CBK267575], the viability at 28.5 h, 10 µM came out at 103%.

Consider `C[C@@H]1CN(C(=O)OCCc2ccsc2)C[C@H](C)O1` [CBK200417], for which the viability at 28.5 h, 10 µM amounted to 89.3%.

As for `COc1cc(CNC(=O)N2CCN(C3CCN(C)CC3)CC2)cc(OC)c1OC` [CBK155893], the viability at 28.5 h, 10 µM was 93.3%.

For the compound `O=C1c2ccccc2S(=O)(=O)N1c1ccc(F)cc1` [CBK113194], the viability at 28.5 h, 10 µM came to 112%.

Regarding `CCc1nc2ccc(C(=O)N(C)Cc3ccco3)cn2c1N(C)C(=O)c1ccncc1` [CBK145479], the viability at 28.5 h, 10 µM was 90.9%.

Regarding `Cc1nc2ccc(Cl)cn2c1CN1CCN(C2CCCC2)C(=O)C1` [CBK281452], the viability at 28.5 h, 10 µM came to 84%.

Regarding `O=C(c1ccccc1)c1cc(Cl)ccc1-n1ccnc1` [CBK012383], the viability at 28.5 h, 10 µM is 105%.

Take `CCC1SC2=NC(C)=C(C(=O)OCc3ccccc3)C(c3ccccc3)N2C1=O` (centres unmarked) [CBK293960]: the viability at 28.5 h, 10 µM turned out to be 82.7%.

For the compound `Cc1nnc2sc(-c3ccncc3)nn12` [CBK269553], the viability at 28.5 h, 10 µM is 84.6%.

As to `Cc1nc(N(C)C)ncc1C(=O)NCCSc1nnnn1C` [CBK306673], the viability at 28.5 h, 10 µM turned out to be 93.1%.

Consider `COc1ccc(CCNC(=O)c2cc(-c3ccc(C)o3)nc3ccccc23)cc1OC` [CBK265486], for which the viability at 28.5 h, 10 µM came out at 117%.

`CCc1cc2c3c(c(=O)oc2cc1OCc1cc(C(=O)O)oc1C)CCCC3` [CBK264402]: the viability at 28.5 h, 10 µM was 98.8%.

`O=C(O)CN(Cc1ccccc1)Cc1ccccc1` [CBK260903]: the viability at 28.5 h, 10 µM is 104%.

As to `O=C(CN1CCCC1)Nc1sc2c(c1C(=O)Nc1ccccc1)CCCC2` [CBK268800], the viability at 28.5 h, 10 µM came out at 103%.

With `O=C(Nc1ccccc1)Nc1cnns1` [CBK028557], the viability at 28.5 h, 10 µM (bulk resorufin, single well) turned out to be 102%.

Regarding `c1cnn(CC2CCCCN2c2ncnc3sccc23)c1` (centres unmarked) [CBK304969], the viability at 28.5 h, 10 µM came to 92.1%.

Consider `CC(=O)c1ccc(-c2nccnc2N2CCCC2CO)s1` (centres unmarked) [CBK037483], for which the viability at 28.5 h, 10 µM came to 113%.

Turning to `CN(C)CCN(C)c1ccc(/C=C/c2ccccc2)cn1` [CBK037026], the viability at 28.5 h, 10 µM turned out to be 98.4%.

On to `COc1cc(NS(=O)(=O)c2ccccc2)c(Cl)cc1C(=O)O` [CBK286564], for which the viability at 28.5 h, 10 µM stood at 98%.

Regarding `Cc1cn(CC(=O)N2CCN(c3ncccn3)CC2)c(=O)[nH]c1=O` [CBK144513], the viability at 28.5 h, 10 µM is 105%.

Take `CC(C(=O)N1CCCCC1)n1sc2ccccc2c1=O` (centres unmarked) [CBK116322]: the viability at 28.5 h, 10 µM was 98.4%.

Turning to `Cc1cc(C(=O)NCCC(=O)O)c2ccccc2n1` [CBK286573], the viability at 28.5 h, 10 µM amounted to 86%.

Regarding `CCOc1cc(CNCCO)c(Cl)cc1OC` [CBK269309C], the viability at 28.5 h, 10 µM came out at 102%.

With `CS(=O)(=O)CCC(C(=O)O)N1C(=O)c2ccc(C(=O)O)cc2C1=O` (centres unmarked) [CBK265719], the viability at 28.5 h, 10 µM stood at 94.5%.

Turning to `Cn1c(SCC(=O)Nc2ccc(Oc3ccc(Cl)cc3)cc2)nnc1-c1ccncc1` [CBK269654], the viability at 28.5 h, 10 µM was determined as 95.6%.

`COCCn1ccnc1C1CCN(C(=O)Cc2ccc(O)c(F)c2)CC1` [CBK306649]: the viability at 28.5 h, 10 µM stood at 82.6%.

Consider `CC1CCN(C(=O)C[C@@H]2O[C@H](CNC(=O)C3CC3)[C@@H](O)[C@H]2O)CC1` [CBK288926], for which the viability at 28.5 h, 10 µM is 92%.

Take `Cc1ccc(C(Cc2ccsc2)NS(=O)(=O)c2ccc3[nH]c(=O)[nH]c(=O)c3c2)nc1` (centres unmarked) [CBK286354]: the viability at 28.5 h, 10 µM amounted to 88.6%.

As for `O=C(Nc1cccc2nsnc12)c1ccc(Cl)cc1` [CBK263793], the viability at 28.5 h, 10 µM was found to be 96.1%.

Take `Cc1cc(C)n(CC2CCCN2CCc2ccccn2)n1` (centres unmarked) [CBK304846]: the viability at 28.5 h, 10 µM is 100%.

For `CSCCCNC(=O)c1cc(-c2ccc(C(=O)N3CCOCC3)cc2)cnc1N` [CBK158568], the viability at 28.5 h, 10 µM amounted to 95.5%.

`CCOC(=O)c1sc(NS(=O)(=O)c2cccc(Cl)c2C)nc1-c1ccccc1` [CBK000749]: the viability at 28.5 h, 10 µM turned out to be 92.7%.

As to `Cc1nc2ccc(C(=O)N3CCN(C)CC3)cn2c1N(C)C(=O)CCc1ccccc1` [CBK146786], the viability at 28.5 h, 10 µM worked out at 95.3%.

For the compound `Cc1ccc2c(c1)C(Oc1cncc(N3CCNCC3)n1)CCO2` (centres unmarked) [CBK172334G], the viability at 28.5 h, 10 µM was 99.7%.

For the compound `CCn1c(=O)n(CC(=O)N2CCCCC2C)c2cccnc21` (centres unmarked) [CBK283896], the viability at 28.5 h, 10 µM is 103%.

In the case of `Cc1cc(NC(=O)c2cc3ccccc3oc2=O)nc2c1c(=O)oc1ccccc12` [CBK287445], the viability at 28.5 h, 10 µM was determined as 100%.

Turning to `COc1ccc(C2CNC(=O)N2C(=O)OC(C)(C)C)cc1OC1CCCC1` (centres unmarked) [CBK007281], the viability at 28.5 h, 10 µM amounted to 93.8%.

Turning to `CCOC(=O)N1CCN(CCCCc2ccc(F)cc2)CC1` [CBK025002C], the viability at 28.5 h, 10 µM came out at 105%.

For `COC(=O)c1ccc(N/C(C)=C/C(=O)c2ccc(C)o2)cc1` [CBK267057], the viability at 28.5 h, 10 µM amounted to 115%.

Turning to `Cc1sc2nc(C(C)N3CCN(Cc4ccco4)CC3)[nH]c(=O)c2c1C` (centres unmarked) [CBK306066], the viability at 28.5 h, 10 µM turned out to be 93.7%.

Regarding `CNC(=O)C1(Cc2ccccc2-c2cccs2)CCN(C(=O)c2cccc(OC)c2)CC1` [CBK285907], the viability at 28.5 h, 10 µM came out at 85.7%.

Regarding `Cc1noc(C)c1CN1CCC(Oc2ccccc2)CC1` [CBK305811], the viability at 28.5 h, 10 µM is 89.6%.

For the compound `COc1ccccc1-c1ccccc1CC1(C(=O)NCc2ccc(F)cc2)CCOCC1` [CBK286425], the viability at 28.5 h, 10 µM turned out to be 90%.

Consider `Oc1ccccc1CN1CCN(Cc2ccccc2O)C1c1ccccc1Br` [CBK262050], for which the viability at 28.5 h, 10 µM came out at 98.1%.

For `CC(C)CNC(=S)N[C@H]1CC[C@@]2(c3cccnc3)CCN(Cc3ccccc3)[C@H]2C1` [CBK028460], the viability at 28.5 h, 10 µM was 125%.

Take `O=C(Nc1cccc([N+](=O)[O-])c1)c1ccc2nc(-c3ccccn3)c(-c3ccccn3)nc2c1` [CBK265137]: the viability at 28.5 h, 10 µM was 101%.

Consider `CNC(=O)c1ccc(CN(Cc2noc(C(C)C)n2)C2CC2)cc1` [CBK304084], for which the viability at 28.5 h, 10 µM was determined as 83%.

As for `Cc1ccc(O)cc1CC[C@@H]1CC(=O)CC2(C)C1CC[C@]2(O)C(=O)COC(=O)CCC(=O)O` (some centres unmarked) [CBK007270], the viability at 28.5 h, 10 µM is 119%.

The term viability denotes a read-out of living cells in per cent, often relative to untreated cells.
